Experimental data from paper PMC9822396 (Molecules, 2022).
Several values for one entry are separate records, joined by “and”; a condition that tells them apart may be missing. Equal entries are not always repeated. Entries after “also recorded” stand apart in the source; their conditions may differ.

How the values were obtained:
hMAO-B [1] = target: T1, hMAO-B (Homo sapiens, UniProt P27338); experiment: Kinetics of hMAO-B inhibition (Lineweaver-Burk and secondary plots); assay type: biochemical; details: for Inhibition type hMAO-B: Lineweaver-Burk plots; for Ki: secondary plots of Lineweaver-Burk slopes
T1 construct: purchased Sigma-Aldrich
T1 sequence (P27338 1-520): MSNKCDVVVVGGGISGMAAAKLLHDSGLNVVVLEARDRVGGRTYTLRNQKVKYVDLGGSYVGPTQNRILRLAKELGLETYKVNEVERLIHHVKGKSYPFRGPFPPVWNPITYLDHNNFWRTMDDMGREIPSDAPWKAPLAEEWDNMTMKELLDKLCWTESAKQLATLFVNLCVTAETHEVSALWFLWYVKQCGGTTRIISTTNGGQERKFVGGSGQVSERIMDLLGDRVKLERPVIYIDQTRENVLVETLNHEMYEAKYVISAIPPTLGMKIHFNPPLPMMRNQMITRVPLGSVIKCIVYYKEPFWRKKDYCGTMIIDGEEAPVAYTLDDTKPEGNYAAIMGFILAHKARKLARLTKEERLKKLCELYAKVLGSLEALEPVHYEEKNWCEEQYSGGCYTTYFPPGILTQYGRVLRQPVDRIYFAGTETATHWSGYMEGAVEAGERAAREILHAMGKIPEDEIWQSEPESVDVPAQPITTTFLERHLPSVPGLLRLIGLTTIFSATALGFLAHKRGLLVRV

MDCK cells = experiment: Cytotoxicity, CCK-8 cell viability, MDCK; assay type: cell-based, canine; details: normal cell line, up to 50 µM, 24 h
From the text: (§1) Dimethyl sulfoxide (DMSO) and 2-mercaptoethanol (2-ME) were obtained from Sigma Aldrich. Cell counting kit-8 (CCK-8) was obtained from Dojindo Laboratories (Kumamoto, Japan). Madin-Darby canine kidney (MDCK; KCLB 10034) cells, human acute promyelocytic leukemia (HL-60; KCLB 10240) cells, and human neuroblastoma cells (SH-SY5Y; KCLB 22266) were purchased from the Korean Cell Line Bank (KCLB, Seoul, Republic of Korea).
(§2) Passages were used between 10 and 30. Following trypsinization, MDCK (1 × 10^4), HL-60 (5 × 10^4), and SH-SY5Y (5 × 10^4) cells were seeded in 96-well plates and treated with 1, 3, 10, 30 and 50 µM of each inhibitor. The plates were then incubated for 24 h at 37 °C with 5% CO2, and cell viability was determined by the CCK-8 and by measuring the optical density at 450 nm using a microplate reader (Versa Max, Molecular Devices, Sunnyvale, CA, USA). The cell viability was expressed as % by comparing the absorbance of the sample to that of the control. Statistical differences between groups were analyzed by ANOVA using IBM SPSS statistics 27 and probability values (p-values) less than 0.05 were marked as significant values.

hMAO-B [2] = target: T1, hMAO-B; experiment: Reversibility of hMAO-B inhibition by dialysis; assay type: biochemical; details: for Reversibility of hMAO-B inhibition: dialysis; for Relative activity dialyzed (AD), hMAO-B: inhibitor at ~2 times IC50, after dialysis; for Relative activity undialyzed (AU), hMAO-B: inhibitor at ~2 times IC50, before dialysis
Protocol: (§3) After preincubating compounds or reference inhibitors with hMAO-A and hMAO-B, residual activities for undialyzed and dialyzed samples were measured. Relative values for undialyzed (AU) and dialyzed (AD) activities were then calculated and compared with non-inhibitor treated controls. Reversibilities were determined by comparing the AU and AD values of inhibitors with those of references.

BChE = target: T2, BChE (Equus caballus, UniProt P81908); experiment: BChE inhibition (Ellman method); assay type: biochemical, equine; details: read-out: Residual Activity at 10 µM (%) BChE
T2 construct: BChE from equine serum; purchased Sigma-Aldrich; host or cells: equine serum
Protocol: (§4) All other chemicals were of reagent grade.
(§5) hMAO-A and -B activities were determined using a continuous spectrophotometric method, as described previously. […] AChE and BChE activities were assayed as described by Ellman et al., with slight modification. Reactions were performed using AChE and BChE in the 0.5 mL reaction mixtures including 0.5 mM substrate (ATCI and BTCI, respectively) and color reagent (DTNB). […] Reaction rates are expressed as changes in absorbance per min.. Inhibitory activities of AChE and BChE were measured after preincubating enzyme with inhibitors for 15 min before adding DTNB and each substrate. […]

hMAO-A [3] = target: T3, hMAO-A (Homo sapiens, UniProt P21397); experiment: biochemical; details: for remaining activity at 10 µM: read-out: Residual Activity at 10 µM (%) hMAO-A
T3 construct: purchased Sigma-Aldrich
T3 sequence (P21397 1-527): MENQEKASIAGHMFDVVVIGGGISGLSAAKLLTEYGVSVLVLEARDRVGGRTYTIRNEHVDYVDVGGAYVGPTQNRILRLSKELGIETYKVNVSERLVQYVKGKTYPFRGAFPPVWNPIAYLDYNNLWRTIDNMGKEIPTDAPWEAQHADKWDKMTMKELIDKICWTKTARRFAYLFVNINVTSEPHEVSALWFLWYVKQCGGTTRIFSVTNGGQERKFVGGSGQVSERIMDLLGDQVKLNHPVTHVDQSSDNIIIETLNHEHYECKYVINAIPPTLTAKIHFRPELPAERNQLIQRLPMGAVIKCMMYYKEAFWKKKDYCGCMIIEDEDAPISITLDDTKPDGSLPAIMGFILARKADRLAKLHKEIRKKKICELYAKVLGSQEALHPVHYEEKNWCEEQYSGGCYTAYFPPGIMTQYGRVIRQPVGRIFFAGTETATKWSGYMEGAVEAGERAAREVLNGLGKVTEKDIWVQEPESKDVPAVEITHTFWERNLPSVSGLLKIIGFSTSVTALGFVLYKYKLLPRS
Protocol: as §4
hMAO-A and -B activities were determined using a continuous spectrophotometric method, as described previously. […] AChE and BChE activities were assayed as described by Ellman et al., with slight modification. Reactions were performed using AChE and BChE in the 0.5 mL reaction mixtures including 0.5 mM substrate (ATCI and BTCI, respectively) and color reagent (DTNB). […] Reaction rates are expressed as changes in absorbance per min.. Inhibitory activities of AChE and BChE were measured after preincubating enzyme with inhibitors for 15 min before adding DTNB and each substrate.
Inhibitory types and Ki values were determined using Lineweaver-Burk plots and secondary plots of their slopes, respectively.

hMAO-B [4] = target: T1, hMAO-B; experiment: biochemical; assay type: biochemical; details: for SI: hMAO-B selectivity: IC50 of hMAO-A divided by IC50 of hMAO-B; for remaining activity at 10 µM: read-out: Residual Activity at 10 µM (%) hMAO-B
Protocol: as §4, §5

hMAO-A [5] = target: T3, hMAO-A; experiment: Reversibility of hMAO-A inhibition by dialysis; assay type: biochemical
Protocol: as §3

BACE1 = target: T4, BACE1 (Homo sapiens, UniProt P56817); experiment: BACE1 inhibition (fluorescent activity detection kit); assay type: biochemical; details: read-out: Residual Activity at 10 µM (%) BACE1
T4 construct: purchased Sigma-Aldrich

[6] = Cytotoxicity, CCK-8 cell viability, SH-SY5Y; assay type: cell-based, human; details: human, 30 µM
From the text: as §1, §2

SH-SY5Y cells = experiment: Cytotoxicity, CCK-8 cell viability, SH-SY5Y; assay type: cell-based, human; details: neuroblastoma, 24 h
From the text: as §1, §2

hMAO-A [7] = target: T3, hMAO-A; experiment: Kinetics of hMAO-A inhibition (Lineweaver-Burk and secondary plots); assay type: biochemical
Protocol: The kinetics of MAO-A inhibition by 13 was also investigated as above, except at 0.0075–0.12 mM of substrate concentrations. Inhibitory types and Ki values were determined using Lineweaver-Burk plots and secondary plots of their slopes, respectively.

AChE = target: T5, AChE (Electrophorus electricus, UniProt O42275); experiment: AChE inhibition (Ellman method); assay type: biochemical; details: read-out: Residual Activity at 10 µM (%) AChE
T5 construct: purchased Sigma-Aldrich
Protocol: as §4, §5

HL-60 cells = experiment: Cytotoxicity, CCK-8 cell viability, HL-60; assay type: cell-based, human; details: cancer cell line, up to 50 µM, 24 h
From the text: as §1, §2

T5 sequence (O42275 24-633): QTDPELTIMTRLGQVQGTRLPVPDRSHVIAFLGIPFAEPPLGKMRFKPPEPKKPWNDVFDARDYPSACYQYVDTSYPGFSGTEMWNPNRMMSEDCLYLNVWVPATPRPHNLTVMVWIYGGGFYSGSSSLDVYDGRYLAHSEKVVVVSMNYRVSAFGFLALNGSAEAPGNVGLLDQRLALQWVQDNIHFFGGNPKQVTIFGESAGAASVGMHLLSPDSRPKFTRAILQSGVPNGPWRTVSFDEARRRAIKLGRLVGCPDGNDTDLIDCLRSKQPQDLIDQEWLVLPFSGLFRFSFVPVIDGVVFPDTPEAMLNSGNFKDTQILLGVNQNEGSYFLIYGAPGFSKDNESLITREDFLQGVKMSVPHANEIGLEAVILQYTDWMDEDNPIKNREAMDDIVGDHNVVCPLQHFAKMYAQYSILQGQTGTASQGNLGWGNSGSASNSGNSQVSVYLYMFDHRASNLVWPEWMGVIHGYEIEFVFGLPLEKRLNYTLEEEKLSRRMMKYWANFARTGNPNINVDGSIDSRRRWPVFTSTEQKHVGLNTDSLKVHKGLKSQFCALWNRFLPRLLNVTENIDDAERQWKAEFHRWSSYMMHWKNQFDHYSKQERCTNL
T4 sequence (P56817 46-501): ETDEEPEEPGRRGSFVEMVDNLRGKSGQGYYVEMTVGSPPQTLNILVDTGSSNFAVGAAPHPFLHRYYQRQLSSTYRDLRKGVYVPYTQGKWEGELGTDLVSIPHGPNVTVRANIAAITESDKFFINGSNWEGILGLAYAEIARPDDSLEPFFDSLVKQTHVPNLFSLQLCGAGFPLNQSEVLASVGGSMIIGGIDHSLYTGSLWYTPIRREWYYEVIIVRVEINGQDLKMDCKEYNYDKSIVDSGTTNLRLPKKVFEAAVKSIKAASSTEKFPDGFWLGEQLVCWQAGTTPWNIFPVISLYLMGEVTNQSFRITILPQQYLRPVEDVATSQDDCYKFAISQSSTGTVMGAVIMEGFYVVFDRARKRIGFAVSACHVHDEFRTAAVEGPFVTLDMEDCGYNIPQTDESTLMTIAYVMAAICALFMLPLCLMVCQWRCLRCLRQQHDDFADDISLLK
T2 sequence (P81908 whole entry): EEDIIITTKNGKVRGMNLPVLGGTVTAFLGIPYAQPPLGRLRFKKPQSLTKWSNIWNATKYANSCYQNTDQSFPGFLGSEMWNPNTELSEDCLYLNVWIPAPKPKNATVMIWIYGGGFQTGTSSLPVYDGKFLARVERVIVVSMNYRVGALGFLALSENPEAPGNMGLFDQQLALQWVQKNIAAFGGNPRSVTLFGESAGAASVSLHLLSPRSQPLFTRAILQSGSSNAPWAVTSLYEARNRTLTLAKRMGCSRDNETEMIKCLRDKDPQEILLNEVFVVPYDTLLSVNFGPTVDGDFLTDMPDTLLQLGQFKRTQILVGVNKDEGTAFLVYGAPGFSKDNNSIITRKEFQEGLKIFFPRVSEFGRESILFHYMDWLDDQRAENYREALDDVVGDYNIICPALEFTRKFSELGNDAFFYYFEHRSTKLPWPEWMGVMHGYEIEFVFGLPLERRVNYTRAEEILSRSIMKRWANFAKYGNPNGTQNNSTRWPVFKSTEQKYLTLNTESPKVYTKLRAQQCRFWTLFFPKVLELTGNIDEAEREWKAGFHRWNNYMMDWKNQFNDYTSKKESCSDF

Row | SMILES | Inhibition type hMAO-B (hMAO-B [1]) | Ki (hMAO-B [1]) | Effect on viability of MDCK cells (MDCK cells) | Reversibility of hMAO-B inhibition (hMAO-B [2]) | Relative activity dialyzed (AD), hMAO-B (hMAO-B [2]) [%] | Relative activity undialyzed (AU), hMAO-B (hMAO-B [2]) [%] | remaining activity at 10 µM (BChE) [%] | IC50 (hMAO-A [3]) [nM] | remaining activity at 10 µM (hMAO-A [3]) [%] | IC50 (hMAO-B [4]) [nM] | SI (hMAO-B [4]) | remaining activity at 10 µM (hMAO-B [4]) [%] | remaining activity at 10 µM (BACE1) [%] | Toxicity to SH-SY5Y cells (SH-SY5Y cells) | remaining activity at 10 µM (AChE) [%] | Effect on viability of HL-60 cells (HL-60 cells) | further results
1 | COc1ccc2c(c1)O[C@H]1c3ccc(OC)cc3OC[C@@H]21 [Compound 13, 3,9-dimethoxypterocarpan] | competitive inhibitor | 210 nM and 212 nM | non-toxicity; also recorded: no effects on the viabilities | reversible inhibitor | 73.5 | 32.0 | 88.5 ± 1.96 | 1490 ± 21 | 11.6 ± 2.6 | 720 ± 28 | 2.07 | 4.05 ± 1.91 | 101.48 ± 0.01 | moderate toxicity | 81 ± 2.44 | non-toxicity; also recorded: no effects on the viabilities | times higher hMAO-B inhibitory activity than 12 (hMAO-B [4]; 9-OCH3 of 13 versus 8,9-methylenedioxy of 12): 4.7 times; Reversibility of hMAO-A inhibition (hMAO-A [5]; dialysis): reversible inhibitor; Relative activity dialyzed (AD), hMAO-A (hMAO-A [5]; inhibitor at ~2 times IC50, after dialysis): 75.8%; Relative activity undialyzed (AU), hMAO-A (hMAO-A [5]; inhibitor at ~2 times IC50, before dialysis): 25.4%; viability at 24 h, 30 µM ([6]; SH-SY5Y neuroblastoma cells): 71.1%; Inhibition type hMAO-A (hMAO-A [7]; Lineweaver-Burk plots): competitive inhibitor; Ki (hMAO-A [7]; secondary plots of Lineweaver-Burk slopes): 617 ± 23 nM
2 | COc1ccc2c(c1)OC1c3ccc(O)cc3OCC21 (stereo not drawn) [Compound 8, 3-hydroxy-9-methoxypterocarpan] | competitive inhibitor | 197 ± 4 nM | non-toxicity; also recorded: no effects on the viabilities | reversible inhibitor | 72.7 | 29.8 | 98.4 ± 1 | 19900 ± 850 | 64.18 ± 0.53 | 450 ± 32 | 44.2 | 4.17 ± 0.84 | 111.4 ± 0.52 | moderate toxicity | 80.6 ± 2.62 | non-toxicity; also recorded: no effects on the viabilities | times higher hMAO-B inhibitory activity than 13 (hMAO-B [4]; 3-OH of 8 versus 3-OCH3 of 13): 1.6 times; times higher hMAO-B inhibition than maackiain (hMAO-B [4]; versus maackiain IC50 of ref 36): 1.5 times; viability at 24 h, 30 µM ([6]; SH-SY5Y cells): 74%
